Assay results from patent US11083725B2 (priority 2014, dated 2021).

System: NHBE cells
Experiment: Biolog metabolic array: substrate use by NHBE cells with or without CA09 infection
Assay type: cell-based, human
Conditions: for Substrate use, 590 nm absorbance normalized to zero hour, 1 hr: Biolog PMM2, 1 hr; for Substrate use, 590 nm absorbance normalized to zero hour, 5 hr: Biolog PMM2, 5 hr; for Substrate use, 590 nm absorbance normalized to zero hour, 7 hr: Biolog PMM2, 7 hr; for Substrate use, 590 nm absorbance normalized to zero hour, 0 hr: Biolog PMM2, 0 hr
[1] = Control (uninfected) NHBE cells
[2] = Virus (CA09-infected, MOI 1) NHBE cells
[3] = Virus: CA09-infected NHBE cells, MOI 1, Biolog PMM2
[4] = Virus (CA09, MOI 1) infected NHBE cells

SMILES	590 nm absorbance normalized to zero hour (substrate use), 1 hr [1]	590 nm absorbance normalized to zero hour (substrate use), 2 hr [1]	590 nm absorbance normalized to zero hour (substrate use), 3 hr [1]	590 nm absorbance normalized to zero hour (substrate use), 4 hr [1]	590 nm absorbance normalized to zero hour (substrate use), 6 hr [1]	590 nm absorbance normalized to zero hour (substrate use), 8 hr [1]	590 nm absorbance normalized to zero hour (substrate use), 9 hr [1]	590 nm absorbance normalized to zero hour (substrate use), 10 hr [1]	590 nm absorbance normalized to zero hour (substrate use), 11 hr [1]	Substrate use, 590 nm absorbance normalized to zero hour, 1 hr [1]	Substrate use, 590 nm absorbance normalized to zero hour, 5 hr [1]	Substrate use, 590 nm absorbance normalized to zero hour, 7 hr [1]	590 nm absorbance normalized to zero hour (substrate use), 1 hr [2]	590 nm absorbance normalized to zero hour (substrate use), 2 hr [2]	590 nm absorbance normalized to zero hour (substrate use), 3 hr [2]	590 nm absorbance normalized to zero hour (substrate use), 4 hr [2]	590 nm absorbance normalized to zero hour (substrate use), 6 hr [2]	590 nm absorbance normalized to zero hour (substrate use), 8 hr [2]	590 nm absorbance normalized to zero hour (substrate use), 9 hr [2]	590 nm absorbance normalized to zero hour (substrate use), 10 hr [2]	other results
O=C(CO)[C@@H](O)[C@@H](O)[C@H](O)CO [D-Tagatose]	1.07	1.01	0.88	0.28	0.49	0.34	0.36	0.37	0.39	1.07	0.29	0.32	0.17	0.24	0.28	0.30	0.39	0.44	0.49	0.51	590 nm absorbance normalized to zero hour (substrate use), 5 hr [2]: 0.36; 590 nm absorbance normalized to zero hour (substrate use), 7 hr [2]: 0.42; 590 nm absorbance normalized to zero hour (substrate use), 1 hr [3]: 0.17; 590 nm absorbance normalized to zero hour (substrate use), 2 hr [3]: 0.24; 590 nm absorbance normalized to zero hour (substrate use), 3 hr [3]: 0.28; 590 nm absorbance normalized to zero hour (substrate use), 4 hr [3]: 0.30; 590 nm absorbance normalized to zero hour (substrate use), 5 hr [3]: 0.36; 590 nm absorbance normalized to zero hour (substrate use), 6 hr [3]: 0.39; 590 nm absorbance normalized to zero hour (substrate use), 7 hr [3]: 0.42; 590 nm absorbance normalized to zero hour (substrate use), 8 hr [3]: 0.44; 590 nm absorbance normalized to zero hour (substrate use), 9 hr [3]: 0.49; 590 nm absorbance normalized to zero hour (substrate use), 10 hr [3]: 0.51; 590 nm absorbance normalized to zero hour (substrate use), 11 hr [3]: 0.48
OC[C@H]1O[C@@H](O[C@@H]2[C@@H](CO)OC(O)(CO)[C@H]2O)[C@H](O)[C@@H](O)[C@H]1O (mixture of isomers) [Lactulose]	1.71	2.30	2.70	2.88	3.78	4.04	4.27	4.46	5.14	1.71	3.40	3.82	1.68	2.24	2.56	2.71	3.31	3.70	4.05	4.25	590 nm absorbance normalized to zero hour (substrate use), 5 hr [2]: 3.13; 590 nm absorbance normalized to zero hour (substrate use), 7 hr [2]: 3.50; 590 nm absorbance normalized to zero hour (substrate use), 11 hr [2]: 4.63; 590 nm absorbance normalized to zero hour (substrate use), 1 hr [3]: 1.68; 590 nm absorbance normalized to zero hour (substrate use), 2 hr [3]: 2.24; 590 nm absorbance normalized to zero hour (substrate use), 3 hr [3]: 2.56; 590 nm absorbance normalized to zero hour (substrate use), 4 hr [3]: 2.71; 590 nm absorbance normalized to zero hour (substrate use), 5 hr [3]: 3.13; 590 nm absorbance normalized to zero hour (substrate use), 6 hr [3]: 3.31; 590 nm absorbance normalized to zero hour (substrate use), 7 hr [3]: 3.50; 590 nm absorbance normalized to zero hour (substrate use), 8 hr [3]: 3.70; 590 nm absorbance normalized to zero hour (substrate use), 9 hr [3]: 4.05; 590 nm absorbance normalized to zero hour (substrate use), 10 hr [3]: 4.25; 590 nm absorbance normalized to zero hour (substrate use), 11 hr [3]: 4.63
OC[C@H]1O[C@H](OCC2O[C@@H](O)[C@H](O)[C@@H](O)[C@@H]2O)[C@H](O)[C@@H](O)[C@H]1O (stereo partly drawn) [D-Melibiose]	0.88	1.14	1.40	1.44	1.81	1.80	2.05	2.19	1.80	0.88	1.69	1.88	3.65	3.76	3.77	3.78	3.58	3.20	1.54	1.54	590 nm absorbance normalized to zero hour (substrate use), 0 hr [1]: 1.00; Substrate use, 590 nm absorbance normalized to zero hour, 0 hr [1]: 1.00; Substrate use, 590 nm absorbance normalized to zero hour, 0 hr [4]: 1.00; Substrate use, 590 nm absorbance normalized to zero hour, 1 hr [4]: 3.65; Substrate use, 590 nm absorbance normalized to zero hour, 5 hr [4]: 3.62; Substrate use, 590 nm absorbance normalized to zero hour, 7 hr [4]: 3.59; 590 nm absorbance normalized to zero hour (substrate use), 0 hr [2]: 1.00; 590 nm absorbance normalized to zero hour (substrate use), 11 hr [2]: 1.63
